Among the data in patent US7662842B2, “Thiazolidinone amides, thiazolidine carboxylic acid amides, and serine amides, including polyamine conjugates thereof, as selective anti-cancer agents” (Ohio State Univesity Research Foundation, priority 2003, dated 2010) are IC50 values, retold here.

Where only a bound is given, the exact number is not on record here.

Assay type in all cases: cell-based
Data set [1] concerns PPC-1 human prostate cancer cells. In words: SRB cytotoxicity assay, PPC-1. The note with it: 96 h exposure, prostate cancer cell line. As for the experimental part: (§1) Dr. Mitchell Steiner at University of Tennessee Health Science Center, kindly provided PPC-1 and TSU-Pr1 cells.
(§2) For in vitro cytotoxicity screening, 1000 to 5000 cells were plated into each well of 96-well plates depending on growth rate, and exposed to different concentrations of a test compound for 96 h in three to five replicates. All the compounds were dissolved in dimethyl sulfoxide at 5 to 20 mM, and diluted to desired concentrations in complete culture medium. Cell numbers at the end of the drug treatment were measured by the SRB assay (Gududuru et al., “Synthesis and Biological Evaluation of Novel Cytotoxic Phospholipids for Prostate Cancer,” Bioorg. Med. Chem. Lett. 14:4919-4923 (2004); Rubinstein et al., “Comparison of in vitro Anticancer-Drug-Screening Data Generated with a Tetrazolium Assay Versus a Protein Assay Against a Diverse Panel of Human Tumor Cell Lines,” J. Natl. Cancer Inst. 82:1113-1118 (1990), each of which is hereby incorporated by reference in its entirety). Briefly, the cells were fixed with 10% of trichloroacetic acid, stained with 0.4% SRB, and the absorbances at 540 nm was measured using a plate reader (DYNEX Technologies, Chantilly, Va.). […] A sandwich ELISA (Roche, Mannheim, Germany) utilizing monoclonal antibodies specific for DNA and histones was used to quantify degree of apoptosis induced by the analogs after 72 h exposure. This assay measures DNA-histone complexes (mono- and oligonucleosomes) released into cytoplasm from the nucleus during apoptosis.
(The SRB assay estimates cell density from bound dye.)

For data set [2], the system named is PC-3 human prostate cancer cells. Kind of data set: SRB cytotoxicity assay, PC-3. The following applies: 96 h exposure, prostate cancer cell line. As for the experimental part:
as §2

Data set [3] concerns CV-1 cells. In words: SRB cytotoxicity assay, CV-1 control cell line. As for the experimental part: For in vitro cytotoxicity screening, 1000 to 5000 cells were plated into each well of 96-well plates depending on growth rate, and exposed to different concentrations of a test compound for 96 h in three to five replicates. All the compounds were dissolved in dimethyl sulfoxide at 5 to 20 mM, and diluted to desired concentrations in complete culture medium. Cell numbers at the end of the drug treatment were measured by the SRB assay (Gududuru et al., “Synthesis and Biological Evaluation of Novel Cytotoxic Phospholipids for Prostate Cancer,” Bioorg. Med. Chem. Lett. 14:4919-4923 (2004); Rubinstein et al., “Comparison of in vitro Anticancer-Drug-Screening Data Generated with a Tetrazolium Assay Versus a Protein Assay Against a Diverse Panel of Human Tumor Cell Lines,” J. Natl. Cancer Inst. 82:1113-1118 (1990), each of which is hereby incorporated by reference in its entirety). Briefly, the cells were fixed with 10% of trichloroacetic acid, stained with 0.4% SRB, and the absorbances at 540 nm was measured using a plate reader (DYNEX Technologies, Chantilly, Va.). […] A sandwich ELISA (Roche, Mannheim, Germany) utilizing monoclonal antibodies specific for DNA and histones was used to quantify degree of apoptosis induced by the analogs after 72 h exposure. This assay measures DNA-histone complexes (mono- and oligonucleosomes) released into cytoplasm from the nucleus during apoptosis. RH7777 cells were employed because of nonspecific cytotoxicity of compound 4 in receptor-negative cells as well as receptor-positive prostate cancer cells.
RH7777 and CV-1 cells were used as negative controls and MCF-7 cell line (breast cancer) was included to examine the selectivity. 5-Fluorouracil was used as reference drug.

Data set [4] deals with TSU-Pr1 human prostate cancer cells. Kind of data set: SRB cytotoxicity assay, TSU-Pr1. The note with it: 96 h exposure, prostate cancer cell line. As for the experimental part: as §1, §2
Data set [5] relates to LNCaP human prostate cancer cells. Kind of data set: SRB cytotoxicity assay, LNCaP. The note with it: 96 h exposure, prostate cancer cell line. As for the experimental part:
as §2

Data set [6] deals with five human prostate cancer cell lines (DU-145, PC-3, LNCaP, PPC-1, and TSU-Pr1). In words: SRB assay, statements on the panel of prostate cancer cell lines. As for the experimental part:
Cell numbers at the end of the drug treatment were measured by the SRB assay (Gududuru et al., “Synthesis and Biological Evaluation of Novel Cytotoxic Phospholipids for Prostate Cancer,” Bioorg. Med. Chem. Lett. 14:4919-4923 (2004); Rubinstein et al., “Comparison of in vitro Anticancer-Drug-Screening Data Generated with a Tetrazolium Assay Versus a Protein Assay Against a Diverse Panel of Human Tumor Cell Lines,” J. Natl. Cancer Inst. 82:1113-1118 (1990), each of which is hereby incorporated by reference in its entirety). Briefly, the cells were fixed with 10% of trichloroacetic acid, stained with 0.4% SRB, and the absorbances at 540 nm was measured using a plate reader (DYNEX Technologies, Chantilly, Va.). […] A sandwich ELISA (Roche, Mannheim, Germany) utilizing monoclonal antibodies specific for DNA and histones was used to quantify degree of apoptosis induced by the analogs after 72 h exposure. This assay measures DNA-histone complexes (mono- and oligonucleosomes) released into cytoplasm from the nucleus during apoptosis. […] EDG-ology of Liver Injury,” Biochimica et Biophysica ACT 1582:251-256 (2002), which is hereby incorporated by reference in its entirety) was also utilized to understand whether the antiproliferative activity of these derivatives is mediated through inhibition of LPL receptors.

In data set [7] the test system is DU-145 human prostate cancer cells. Kind of data set: SRB cytotoxicity assay, DU-145. The note with it: read-out: IC50 DU-145, 96 h exposure, prostate cancer cell line. As for the experimental part:
as §2

For data set [8], the system named is human breast cancer cell line (MCF-7). Kind of data set: SRB cytotoxicity assay, MCF-7. The note with it: SRB assay. As for the experimental part:
as §2
In vitro cytotoxicity assay was performed by the same sulforhodamine B (SRB) assay (described above). The compounds shown in Table 8 below where tested for activity against the breast cancer and ovarian cancer cell lines.
RH7777 and CV-1 cells were used as negative controls and MCF-7 cell line (breast cancer) was included to examine the selectivity.

Data set [9] has as its system RH7777 rat hepatoma cells. Kind of data set: SRB cytotoxicity assay, RH7777 control cell line. The note with it: SRB assay, 96 h exposure; control cell line. As for the experimental part: as §2

In the case of `COc1cc(C2NC(C(=O)NCCCCN)CS2)cc(OC)c1OC` (mixture of isomers) [Compound 222], the IC50 in [1], in [2], in data set [3], in [4], in data set [5] and in data set [6] was > 100 µM each time. For the same compound, the 50% inhibitory concentration (IC50) in data set [7], in data set [8] and in data set [9] was > 100 µM each time.
For `COc1cc(C2NC(C(=O)NCCCNCCCCN)CS2)cc(OC)c1OC` (mixture of isomers) [Compound 223], the concentration for half-maximal inhibition (IC50) in data set [1], in [2], in data set [3], in [4], in data set [5] and in data set [6] was > 100 µM each time. Further, the IC50 in data set [7], in data set [8] and in data set [9] was > 100 µM each time.
Regarding `NCCCCNC(=O)C(N)CO` (stereo not shown) [Compound 214], the IC50 in [1], in [2], in [3], in data set [4], in data set [5] and in data set [6] was > 100 µM in each case. In addition, the IC50 in data set [7], in [8] and in data set [9] was > 100 µM each time.
Consider `NCCCCNCCCNC(=O)C(N)CO` (stereo not shown) [Compound 215], for which the half-maximal inhibitory concentration (IC50) in data set [1], in [2], in data set [3], in data set [4], in [5] and in data set [6] was > 100 µM each time. Moreover, the IC50 in [7], in data set [8] and in [9] was > 100 µM in each case.
On to `NCCCNCCCCNCCCNC(=O)C(N)CO` (stereo not shown) [Compound 216], for which the 50% inhibitory concentration (IC50) (in general, the midpoint of a concentration-inhibition curve) in data set [1] is 4 µM; in data set [2], 4.8 µM; in data set [3], 37.1 µM; in data set [4], 2.5 µM; in data set [5], 8 µM; in data set [7], 4.6 µM. The half-maximal inhibitory concentration (IC50) in data set [8] is > 100 µM; in data set [9], 58.2 µM.
As for `NCCCCNC(=O)CN1C(=O)CSC1c1ccccc1` (stereo not shown) [Compound 218], the IC50 in data set [1], in data set [2], in data set [3], in data set [4], in [5] and in data set [6] was > 100 µM each time. Moreover, the IC50 in [7], in data set [8] and in [9] was > 100 µM in each case.
`NCCCCNCCCNC(=O)CN1C(=O)CSC1c1ccccc1` (stereo not shown) [Compound 219]: the IC50 in [1], in data set [2], in data set [3], in [4], in [5] and in data set [6] was > 100 µM in each case. Moreover, the IC50 in data set [7], in data set [8] and in data set [9] was > 100 µM in each case.
As for `NCCCNCCCCNCCCNC(=O)CN1C(=O)CSC1c1ccccc1` (stereo not shown) [Compound 220], the IC50 in [1] turned out to be 5.7 µM; in data set [2], 7 µM; in data set [3] it was 34 µM; in data set [4], 3.2 µM; in data set [5], 12.2 µM; in data set [7], 5.3 µM. For the same compound, the half-inhibitory concentration (IC50) was > 100 µM in data set [8] and 68.4 µM in data set [9].
